Source: ChEMBL document CHEMBL1201862, “PubChem BioAssay data set” (2004)
The source made the active and inactive calls. Cut-off read from the data, not from the text of the source, for most assays here: actives have a measured AC50 and inactives only a lower limit.

What was measured:
cells = details: HEK293
[1] = endogenous miR-122 level reduction, dose response, orthogonal assay for miR-122 inhibitor project, cell-based, Huh7, RT-qPCR, dry powder (AID 687041); format: functional
[2] = PAX5 activity inhibitors, dose response, selectivity assay for PAX8 inhibitor project, cell-based, plate reader, dry powder samples (AID 743047); format: functional;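 note: HEK293 cells carrying a Pax5 driven CD19 promoter luciferase reporter; potency of inhibitors that lower reporter luminescence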
[3] = PAX2 cell-based inhibition, dose response, selectivity assay for PAX8 inhibitor project, plate reader, dry powder samples (AID 743048); format: functional;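 note: HEK293 cells carrying a WT1 promoter luciferase reporter driven by expressed Pax2; potency is for inhibition of Pax2 driven reporter signal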
[4] = cytotoxicity in COV434 cells, dose response, cytotoxicity control for PAX8 inhibitor project, cell-based, plate reader, dry powder, SA7 (AID 743145); format: functional
[5] = cytotoxicity dependent on PAX8, dose response, cell-based, plate reader, dry powder (AID 743049); format: functional
Paired box protein Pax-8 = Paired box protein Pax-8 (Homo sapiens, UniProt Q06710); assay: inhibitors of PAX8-driven TPO luciferase reporter, dose response, RMG-I cells, cherry-pick (AID 687027); format: functional, cell-based;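 note: luciferase reporter driven by Pax8 target thyroperoxidase promoter measured by SteadyGlo luminescence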
Chain of Paired box protein Pax-8 (Q06710 whole entry): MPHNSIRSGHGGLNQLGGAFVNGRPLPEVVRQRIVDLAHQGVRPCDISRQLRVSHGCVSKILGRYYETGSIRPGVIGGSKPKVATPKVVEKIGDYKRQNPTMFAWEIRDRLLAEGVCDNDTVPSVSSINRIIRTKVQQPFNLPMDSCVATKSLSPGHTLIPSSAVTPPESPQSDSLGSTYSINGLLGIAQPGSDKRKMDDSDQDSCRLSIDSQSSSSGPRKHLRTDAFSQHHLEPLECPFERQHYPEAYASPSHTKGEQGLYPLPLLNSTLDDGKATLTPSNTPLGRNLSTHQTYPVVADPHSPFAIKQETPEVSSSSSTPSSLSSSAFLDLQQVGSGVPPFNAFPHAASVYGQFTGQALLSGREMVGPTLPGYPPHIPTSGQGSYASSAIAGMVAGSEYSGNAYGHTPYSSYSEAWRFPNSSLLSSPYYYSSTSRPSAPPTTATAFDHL

[6] = target: NAD-dependent protein deacylase sirtuin-5, mitochondrial (Homo sapiens, UniProt Q9NXA8); assay: SIRT5 desuccinylase inhibitors, dose response, biochemical, fluorescence imaging, cherry-pick, set 5 (AID 720591);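 note: desuccinylation of succinyl peptide AMC substrate read as fluorescence after trypsin release; potency of inhibitors that lower fluorescence and may act on trypsin instead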
Chain of NAD-dependent protein deacylase sirtuin-5, mitochondrial (Q9NXA8 whole entry, the tested form may be a part): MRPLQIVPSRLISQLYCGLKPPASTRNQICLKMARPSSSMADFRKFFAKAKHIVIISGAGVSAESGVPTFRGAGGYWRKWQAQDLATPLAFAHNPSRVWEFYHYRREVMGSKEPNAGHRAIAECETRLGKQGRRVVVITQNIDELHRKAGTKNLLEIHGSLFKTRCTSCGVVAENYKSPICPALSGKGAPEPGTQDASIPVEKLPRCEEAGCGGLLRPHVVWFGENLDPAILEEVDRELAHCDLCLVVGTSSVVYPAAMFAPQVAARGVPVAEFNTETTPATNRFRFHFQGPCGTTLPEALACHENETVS

[7] = target: E3 ubiquitin-protein ligase UHRF1 (Homo sapiens, UniProt Q96T88); assay: Counterscreen for inhibitors of 5-meCpG-binding domain protein 2 (MBD2): TRFRET-based biochemical high throughput dose response assay to identify inhibitors of binding of ubiquitin-like with PHD and ring finger domains 1 (UHRF1) to methylated oligonucleotide.
Chain of E3 ubiquitin-protein ligase UHRF1 (Q96T88 whole entry, the tested form may be a part): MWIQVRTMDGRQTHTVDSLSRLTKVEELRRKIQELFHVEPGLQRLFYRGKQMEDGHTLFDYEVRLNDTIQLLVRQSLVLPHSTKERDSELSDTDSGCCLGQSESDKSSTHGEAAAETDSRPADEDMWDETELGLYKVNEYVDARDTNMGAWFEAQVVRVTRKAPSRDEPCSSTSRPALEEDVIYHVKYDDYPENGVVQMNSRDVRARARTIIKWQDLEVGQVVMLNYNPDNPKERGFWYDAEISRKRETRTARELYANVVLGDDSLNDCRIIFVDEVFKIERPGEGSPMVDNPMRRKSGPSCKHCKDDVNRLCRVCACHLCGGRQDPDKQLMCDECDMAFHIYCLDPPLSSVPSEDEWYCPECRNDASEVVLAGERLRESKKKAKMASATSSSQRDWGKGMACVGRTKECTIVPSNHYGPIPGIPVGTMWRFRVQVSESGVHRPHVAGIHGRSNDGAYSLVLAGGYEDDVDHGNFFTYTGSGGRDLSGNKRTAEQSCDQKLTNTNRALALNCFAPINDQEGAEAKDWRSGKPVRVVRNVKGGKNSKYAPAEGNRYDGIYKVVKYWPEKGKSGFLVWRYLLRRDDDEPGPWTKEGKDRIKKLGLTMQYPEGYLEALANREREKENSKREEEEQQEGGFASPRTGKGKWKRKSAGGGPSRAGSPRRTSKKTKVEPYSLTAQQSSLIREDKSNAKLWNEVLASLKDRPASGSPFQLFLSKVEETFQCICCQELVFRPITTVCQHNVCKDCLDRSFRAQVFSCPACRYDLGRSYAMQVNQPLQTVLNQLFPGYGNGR

[8] = HEK293 cell cytotoxicity, dose response, cytotoxicity control, cherry-picks, set 5 (AID 1053117); format: functional, cell-based
[9] = HepG2 cell cytotoxicity, dose response, cytotoxicity control, cherry-picked samples (AID 1159577); format: functional, cell-based
[10] = inhibitors of fibronectin matrix deposition, dose response, AH1F cells, Alexa488-FN fluorescence, cherry-picks (AID 1035475); format: functional, cell-based
[11] = A549 cell cytotoxicity, dose response, cytotoxicity control, cherry-picks, 26 µM top dose (AID 1053119); format: functional, cell-based
[12] = P. falciparum Dd2 growth inhibitors, dose response, SYBR Green, cherry-picked samples (AID 1159567); format: functional, cell-based
[13] = HepG2 cell cytotoxicity, dose response, cytotoxicity control, cherry-picks, set 5 (AID 1053118); format: functional, cell-based
[14] = target: Potassium channel subfamily K member 3 (Homo sapiens, UniProt O14649); assay: TASK1 (KCNK3) potassium channel inhibitors, SAR follow-up, CHO cells, FluxOR thallium flux (AID 652212); format: functional
Chain of Potassium channel subfamily K member 3 (O14649 whole entry): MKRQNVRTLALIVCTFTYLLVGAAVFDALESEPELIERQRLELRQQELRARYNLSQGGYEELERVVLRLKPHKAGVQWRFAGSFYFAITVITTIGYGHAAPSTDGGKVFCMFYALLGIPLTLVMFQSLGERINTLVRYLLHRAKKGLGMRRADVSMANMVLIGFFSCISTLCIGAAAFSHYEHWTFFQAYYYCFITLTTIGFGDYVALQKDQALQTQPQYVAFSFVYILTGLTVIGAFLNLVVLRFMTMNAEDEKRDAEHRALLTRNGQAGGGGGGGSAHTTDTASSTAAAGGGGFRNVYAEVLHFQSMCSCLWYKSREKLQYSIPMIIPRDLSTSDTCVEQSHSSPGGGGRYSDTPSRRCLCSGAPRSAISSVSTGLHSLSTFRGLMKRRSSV

[15] = target: C-X-C chemokine receptor type 4 (Homo sapiens, UniProt P61073); assay: SAR analysis of small molecule antagonists of the CXCR6 receptor using a CXCR4 receptor luminescent beta-arrestin counterscreen.; format: functional
Chain of C-X-C chemokine receptor type 4 (P61073 whole entry): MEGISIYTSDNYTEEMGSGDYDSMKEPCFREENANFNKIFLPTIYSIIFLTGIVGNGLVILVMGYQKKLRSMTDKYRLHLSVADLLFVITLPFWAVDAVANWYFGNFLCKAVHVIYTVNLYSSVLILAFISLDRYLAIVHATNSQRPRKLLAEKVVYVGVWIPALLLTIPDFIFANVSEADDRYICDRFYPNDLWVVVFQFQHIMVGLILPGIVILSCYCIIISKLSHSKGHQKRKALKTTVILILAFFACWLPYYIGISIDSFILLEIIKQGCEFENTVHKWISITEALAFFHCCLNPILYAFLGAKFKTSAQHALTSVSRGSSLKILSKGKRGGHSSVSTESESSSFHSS

[16] = target: C-C chemokine receptor type 6 (Homo sapiens, UniProt P51684); assay: SAR analysis of small molecule antagonists of the CXCR6 receptor using a CCR6 receptor luminescent beta-arrestin counterscreen.; format: functional
Chain of C-C chemokine receptor type 6 (P51684 whole entry): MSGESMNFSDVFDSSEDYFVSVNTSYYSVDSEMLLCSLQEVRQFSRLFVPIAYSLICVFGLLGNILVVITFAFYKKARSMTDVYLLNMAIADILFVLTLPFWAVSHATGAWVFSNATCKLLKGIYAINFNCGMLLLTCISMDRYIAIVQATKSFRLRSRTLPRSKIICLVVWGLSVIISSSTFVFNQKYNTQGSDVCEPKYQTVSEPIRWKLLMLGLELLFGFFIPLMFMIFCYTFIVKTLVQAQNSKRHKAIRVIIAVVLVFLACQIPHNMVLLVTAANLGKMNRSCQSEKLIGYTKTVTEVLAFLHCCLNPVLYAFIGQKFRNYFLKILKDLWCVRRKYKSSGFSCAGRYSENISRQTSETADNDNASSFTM

SMILES: CC(=O)Oc1ccc(C(=O)Nc2cc(C)on2)cc1
- AC50 (cells): > 52 µM (inactive)

SMILES: S=C(Nc1ccc(Cl)cc1Cl)NC1CCCCC1
- AC50 [1]: 2.25 µM (active)

SMILES: C[C@@H]1CN([C@H](C)CO)C(=O)CCCn2nncc2CO[C@H]1CN(C)Cc1ccc(Oc2ccccc2)cc1
- AC50 [2]: > 70 µM (inactive)
- AC50 [3]: 47.9 µM (active)
- AC50 [4]: 0.00024 µM (active)
- AC50 [5]: > 70 µM (inactive)
- AC50 (Paired box protein Pax-8): 22.1 µM (active)

SMILES: CCOC(=O)C1=C[C@@H](c2ccccc2)N(S(=O)(=O)c2ccc(C)cc2)[C@H]1c1ccccc1Cl
- AC50 [6]: > 30 µM (inactive)

SMILES: CCCCn1nnnc1C1(C)CCC(=O)N1CCCn1ccnc1 (stereo not drawn)
- IC50 [7]: > 43.7 µM (inactive)

SMILES: CO[C@@H]1CN(C)C(=O)c2ccc(NC(=O)c3ccc(-c4ccccc4)cc3)cc2OC[C@@H](C)NC[C@H]1C
- AC50 [8]: 12.1 µM (active)
- AC50 [9]: 10.3 µM (active)
- AC50 [10]: 19.6 µM (active)
- AC50 [11]: 12.3 µM (active)
- AC50 [12]: 8.67 µM (active)
- AC50 [13]: 10.8 µM (active)

SMILES: Cc1cccc(C(=O)Nc2cccc(C(=O)Nc3ccccc3)c2)c1
- IC50 [14]: 1.14 µM (active)

SMILES: COc1cc(C(=O)NC2CC3CCCC(C2)N3CC(=O)Nc2ccc(Cl)cc2)cc(OC)c1OC (stereo not drawn)
- IC50 [15]: > 79 µM (inactive)
- IC50 [16]: > 79 µM (inactive)
